Tests used:
[1] = target: T1, human sodium channels Nav 1.8 (Homo sapiens, UniProt Q9Y5Y9); test: Automated whole-cell voltage-clamp (ScreenPatch 384P) sodium current block, Nav 1.8; assay type: cell-based; conditions: CHO cells stably expressing human Nav 1.8; holding -100 mV, inactivation step -40 mV for 8 seconds, test step 10 mV (TP1A); exposure at least five minutes, room temperature; mean where tested in two or more assays; read-out: Nav1.8 IC50
T1 construct: expressed in transfected cells
T1 sequence (Q9Y5Y9 whole entry): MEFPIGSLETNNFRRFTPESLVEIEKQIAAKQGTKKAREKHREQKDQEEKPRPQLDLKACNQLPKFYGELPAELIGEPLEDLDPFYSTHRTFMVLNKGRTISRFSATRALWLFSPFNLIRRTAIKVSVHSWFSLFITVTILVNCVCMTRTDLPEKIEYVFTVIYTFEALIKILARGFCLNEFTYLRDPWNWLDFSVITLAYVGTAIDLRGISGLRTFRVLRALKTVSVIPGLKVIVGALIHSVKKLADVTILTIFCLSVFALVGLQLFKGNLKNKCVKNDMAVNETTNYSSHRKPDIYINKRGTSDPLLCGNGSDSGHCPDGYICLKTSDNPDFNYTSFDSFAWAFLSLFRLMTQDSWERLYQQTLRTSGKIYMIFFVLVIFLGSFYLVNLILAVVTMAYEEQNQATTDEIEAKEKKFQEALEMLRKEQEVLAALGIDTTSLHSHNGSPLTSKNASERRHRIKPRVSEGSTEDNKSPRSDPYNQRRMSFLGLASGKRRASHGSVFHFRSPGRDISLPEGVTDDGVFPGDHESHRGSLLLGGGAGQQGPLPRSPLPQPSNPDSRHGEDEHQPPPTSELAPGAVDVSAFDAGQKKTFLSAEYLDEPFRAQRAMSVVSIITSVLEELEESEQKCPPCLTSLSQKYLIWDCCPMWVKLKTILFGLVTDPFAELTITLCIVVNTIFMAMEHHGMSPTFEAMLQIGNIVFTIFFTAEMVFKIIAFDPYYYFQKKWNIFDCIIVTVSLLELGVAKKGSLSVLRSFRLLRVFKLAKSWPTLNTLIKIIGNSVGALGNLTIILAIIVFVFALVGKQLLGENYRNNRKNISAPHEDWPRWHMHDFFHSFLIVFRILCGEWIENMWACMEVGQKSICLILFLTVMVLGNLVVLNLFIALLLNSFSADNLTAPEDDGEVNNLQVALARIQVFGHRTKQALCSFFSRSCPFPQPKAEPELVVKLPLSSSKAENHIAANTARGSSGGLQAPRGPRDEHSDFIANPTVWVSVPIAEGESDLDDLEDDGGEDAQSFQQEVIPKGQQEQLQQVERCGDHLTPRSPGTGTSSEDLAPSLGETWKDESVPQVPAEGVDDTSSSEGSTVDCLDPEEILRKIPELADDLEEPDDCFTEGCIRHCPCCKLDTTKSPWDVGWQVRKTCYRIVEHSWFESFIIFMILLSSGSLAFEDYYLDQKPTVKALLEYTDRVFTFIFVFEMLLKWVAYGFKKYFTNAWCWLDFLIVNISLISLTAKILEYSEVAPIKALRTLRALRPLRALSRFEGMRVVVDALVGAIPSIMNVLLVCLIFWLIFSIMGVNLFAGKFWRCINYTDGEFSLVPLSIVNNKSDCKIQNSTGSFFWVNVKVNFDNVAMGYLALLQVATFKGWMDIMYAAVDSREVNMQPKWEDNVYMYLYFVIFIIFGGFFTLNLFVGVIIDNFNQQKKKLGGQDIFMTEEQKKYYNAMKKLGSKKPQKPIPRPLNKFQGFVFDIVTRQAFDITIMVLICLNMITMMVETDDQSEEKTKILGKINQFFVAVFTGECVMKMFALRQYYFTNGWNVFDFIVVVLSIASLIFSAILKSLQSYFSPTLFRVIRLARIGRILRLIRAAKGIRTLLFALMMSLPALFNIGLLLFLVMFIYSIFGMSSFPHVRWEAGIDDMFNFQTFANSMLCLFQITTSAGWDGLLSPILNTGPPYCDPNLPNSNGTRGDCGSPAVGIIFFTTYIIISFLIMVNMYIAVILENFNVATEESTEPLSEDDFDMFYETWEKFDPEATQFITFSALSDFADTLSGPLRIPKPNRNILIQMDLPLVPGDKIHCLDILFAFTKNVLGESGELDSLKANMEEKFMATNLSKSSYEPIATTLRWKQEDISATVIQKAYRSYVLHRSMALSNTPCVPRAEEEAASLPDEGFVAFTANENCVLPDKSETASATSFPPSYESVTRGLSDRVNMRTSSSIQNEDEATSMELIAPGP
Experimental: (§1) Biological assays were performed on Chinese hamster ovary (CHO) cells that express human sodium channels Nav 1.8 or Nav 1.7 in a stable manner.
(§2) The experimental protocol voltage-clamp using the whole cell configuration was established on the automated ScreenPatch® 384P platform (SP384PE, Nanion Technologies, Livingston, NJ) and the results were recorded with a Nanion 384-well Patch Clamp chip (NPC) (Nanion Technologies, Livingston, NJ).
(§3) Compounds of Formula Ia and Formula Ib were diluted in eight concentrations in the extracellular solution composed of saline solution, buffered with HEPES (mM): NaCl, 137; KCl, 4; CaCl2, 3,8; MgCl2, 1; HEPES, 10; Glucose, 10; pH 7.4. The […], 50; CsF, 90; MgCl2, 5; EGTA, 5; HEPES, 10; pH 7.2. The duration of exposure of each compound with cells expressing Nav 1.7 or Nav 1.8 was at least five minutes, and the assays were performed at room temperature.
(§4) The measurements of the sodium currents of Nav 1.8 and Nav 1.7 were obtained using the voltage protocol described below: A holding voltage of -100 mV was established followed by an inactivation voltage step at -40 mV for 8 seconds, followed by a step of -100 mV for 20 ms, followed by a 20 ms step for 10 mV for Nav 1.8 or 0 mV for Nav 1.7 (TP1A) before returning to the holding voltage of -100 mV.
(§5) The protocol was repeated at a frequency of 0.05 Hz and the amplitude of the current was quantified throughout the recording of the TP1A phase. The variation in the amplitude of the peak current was evaluated according to the formula described below, after exposing the cells expressing the channels to each concentration of the different compounds: % Block = (1−(ITP1A,molecule/ITP1A,basal)×100%, [formula] wherein ITP1A,basal and ITP1A,molecule represent the peaks of sodium current input into TP1A before exposure to the compound and in the presence of the compound, respectively.
(§6) Data were obtained by nonlinear regression (nonlinear least squares) with XLfit for Excel (Microsoft, Redmond, WA).
(§7) The compounds were tested in at least one assay to obtain the value of CI50. For compounds that were tested in two or more assays, the results are described as the mean of the CI50 values.

[2] = target: T2, human sodium channels Nav 1.7 (Homo sapiens, UniProt Q15858); test: Automated whole-cell voltage-clamp (ScreenPatch 384P) sodium current block, Nav 1.7; assay type: cell-based; conditions: CHO cells stably expressing human Nav 1.7; holding -100 mV, inactivation step -40 mV for 8 seconds, test step 0 mV (TP1A); exposure at least five minutes, room temperature; mean where tested in two or more assays; read-out: Nav1.7 IC50
T2 construct: expressed in transfected cells
T2 sequence (Q15858 whole entry): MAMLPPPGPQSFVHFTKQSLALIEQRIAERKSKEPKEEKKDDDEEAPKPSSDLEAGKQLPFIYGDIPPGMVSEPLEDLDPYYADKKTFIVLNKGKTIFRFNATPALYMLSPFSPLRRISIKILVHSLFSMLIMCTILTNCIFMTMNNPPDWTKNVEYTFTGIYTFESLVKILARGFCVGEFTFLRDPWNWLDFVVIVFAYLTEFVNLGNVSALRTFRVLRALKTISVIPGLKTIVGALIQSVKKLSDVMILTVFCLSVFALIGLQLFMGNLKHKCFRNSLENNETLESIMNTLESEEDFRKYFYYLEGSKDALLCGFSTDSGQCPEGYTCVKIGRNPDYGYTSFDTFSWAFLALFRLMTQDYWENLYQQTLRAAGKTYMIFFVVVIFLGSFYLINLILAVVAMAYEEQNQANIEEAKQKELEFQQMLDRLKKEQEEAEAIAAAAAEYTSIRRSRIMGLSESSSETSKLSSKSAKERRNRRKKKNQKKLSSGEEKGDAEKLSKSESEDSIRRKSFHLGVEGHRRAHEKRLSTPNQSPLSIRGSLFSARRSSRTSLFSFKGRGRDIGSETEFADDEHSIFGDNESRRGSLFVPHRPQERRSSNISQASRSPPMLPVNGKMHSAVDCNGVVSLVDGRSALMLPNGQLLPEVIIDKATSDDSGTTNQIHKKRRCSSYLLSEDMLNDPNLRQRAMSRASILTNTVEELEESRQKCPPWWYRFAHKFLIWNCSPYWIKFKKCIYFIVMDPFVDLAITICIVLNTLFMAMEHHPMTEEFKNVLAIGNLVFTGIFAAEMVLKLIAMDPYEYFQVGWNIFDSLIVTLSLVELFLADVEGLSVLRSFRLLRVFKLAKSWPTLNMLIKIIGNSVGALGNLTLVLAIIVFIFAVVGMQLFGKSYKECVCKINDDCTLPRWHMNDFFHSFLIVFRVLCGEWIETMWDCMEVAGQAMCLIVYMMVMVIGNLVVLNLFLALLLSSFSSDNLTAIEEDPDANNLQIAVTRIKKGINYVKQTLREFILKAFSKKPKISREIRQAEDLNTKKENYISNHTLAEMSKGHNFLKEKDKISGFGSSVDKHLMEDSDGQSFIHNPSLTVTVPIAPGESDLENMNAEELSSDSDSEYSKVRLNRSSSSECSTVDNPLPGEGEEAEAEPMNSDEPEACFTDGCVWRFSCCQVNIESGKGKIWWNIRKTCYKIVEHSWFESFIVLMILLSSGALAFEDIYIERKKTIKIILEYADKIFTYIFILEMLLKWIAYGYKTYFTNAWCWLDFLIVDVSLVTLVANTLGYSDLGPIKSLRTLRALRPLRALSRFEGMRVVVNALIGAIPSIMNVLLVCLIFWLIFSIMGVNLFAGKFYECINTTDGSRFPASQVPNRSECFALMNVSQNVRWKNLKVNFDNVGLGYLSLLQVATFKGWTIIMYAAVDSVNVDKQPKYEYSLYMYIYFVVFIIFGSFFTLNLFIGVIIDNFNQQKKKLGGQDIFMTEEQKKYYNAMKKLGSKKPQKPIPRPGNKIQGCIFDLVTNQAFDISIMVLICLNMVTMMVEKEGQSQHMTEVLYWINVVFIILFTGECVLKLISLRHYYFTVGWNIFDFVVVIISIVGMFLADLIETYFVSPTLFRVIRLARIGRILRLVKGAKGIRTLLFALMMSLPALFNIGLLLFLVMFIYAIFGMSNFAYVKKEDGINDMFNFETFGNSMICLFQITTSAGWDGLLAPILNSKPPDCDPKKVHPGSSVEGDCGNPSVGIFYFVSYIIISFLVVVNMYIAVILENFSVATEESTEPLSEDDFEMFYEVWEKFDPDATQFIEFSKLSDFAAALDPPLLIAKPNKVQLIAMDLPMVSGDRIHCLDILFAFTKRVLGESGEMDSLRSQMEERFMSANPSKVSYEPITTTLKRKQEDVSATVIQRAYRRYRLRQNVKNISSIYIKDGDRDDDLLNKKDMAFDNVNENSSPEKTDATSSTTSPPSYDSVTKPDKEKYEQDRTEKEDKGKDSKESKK
Experimental: as §1, §2, §3, §4, §5, §6, §7

Compound | IC50 [1] [µM] | IC50 [2] [µM]
CCOc1ccc(-c2cncc(C(=O)NCCc3ccccc3F)n2)cc1 [compound 6] | < 0.5 | < 0.5
CCOc1cc(C)c(-c2cncc(C(=O)NCCc3cc(OC)cc(OC)c3)n2)cn1 [compound 30] | > 1 | > 1
CCOc1ccc(-c2cncc(C(=O)NCCc3cc(OC)cnc3F)n2)cn1 [compound 34] | < 0.5 | 0.5 to 1
CCOc1ccc(-c2cncc(C(=O)NCCc3cc(C(C)O)ccc3F)n2)cn1 (stereo not drawn) [compound 43] | < 0.5 | 0.5 to 1
CCOc1ccc(-c2cncc(C(=O)NCCc3cccc(OC)c3)n2)cn1 [compound 45] | < 0.5 | 0.5 to 1
O=C(NCCc1ccccc1F)c1cncc(-c2ccc(OC(F)F)nc2)n1 [compound 47] | > 1 | > 1
COc1ccc(-c2cncc(C(=O)NCCc3ccccc3F)n2)cn1 [compound 48] | > 1 | > 1
COc1cnc(F)c(CCNC(=O)c2cncc(-c3ccc(OC(F)F)nc3)n2)c1 [compound 51] | > 1 | > 1
COc1cnc(F)c(CCNC(=O)c2cncc(-c3ccc(OC)nc3)n2)c1 [compound 53] | < 0.5 | 0.5 to 1
COc1cnc(F)c(CCNC(=O)c2cncc(-c3ccc(C(C)(C)O)nc3)n2)c1 [compound 57] | > 1 | > 1
COc1cnc(F)c(CCNC(=O)c2cncc(-c3ccc(C(C)O)nc3)n2)c1 (stereo not drawn) [compound 58] | > 1 | > 1
CCOc1ccc(-c2cncc(C(=O)Nc3nc4c(F)ccc(OC)c4s3)n2)cn1 [compound 61] | > 1 | > 1
CCOc1ccc(-c2cncc(C(=O)Nc3cn4c(F)ccc(OC)c4n3)n2)cn1 [compound 63] | > 1 | > 1
CCOc1ccc(-c2cncc(C(=O)Nc3nc4c(F)ccc(OC)c4[nH]3)n2)cn1 [compound 64] | > 1 | > 1
CCOc1ccc(-c2cncc(C(=O)Nc3nc4c(F)ccc(OC)c4o3)n2)cn1 [compound 65] | > 1 | > 1
CCOc1ccc(-c2cncc(C(=O)Nc3nc4c(OC)ccc(F)c4n3C)n2)cn1 [compound 66] | > 1 | > 1
CCOc1ccc(-c2cncc(C(=O)Nc3nc4c(F)ncc(OC)c4o3)n2)cn1 [compound 67] | > 1 | > 1
CCOc1ccc(-c2cncc(C(=O)Nc3cn4c(OC)ccc(F)c4n3)n2)cn1 [compound 68] | > 1 | > 1
CCOc1ccc(-c2cncc(C(=O)Nc3cc4c(F)ccc(OC)c4[nH]3)n2)cn1 [compound 69] | < 0.5 | > 1
CCOc1ccc(-c2cncc(C(=O)Nc3cc4c(F)ccc(OC)c4n3C)n2)cn1 [compound 70] | > 1 | > 1
CCOc1ccc(-c2cncc(C(=O)N(C)c3cc4c(F)ccc(OC)c4[nH]3)n2)cn1 [compound 71] | > 1 | > 1
CCOc1ccc(-c2cncc(C(=O)Nc3cc4cccc(OC)c4[nH]3)n2)cn1 [compound 72] | > 1 | > 1
CCOc1ccc(-c2cncc(C(=O)Nc3cc4c(OC)cccc4[nH]3)n2)cn1 [compound 73] | > 1 | > 1

Other lines, results leading:

IC50 [1] [µM] | IC50 [2] [µM] | Compound
0.5 to 1 | > 1 | COc1cc(CCNC(=O)c2cncc(-c3ccc(OC(C)C)cc3)n2)cc(OC)c1 [compound 1]
< 0.5 | 0.5 to 1 | COc1cc(CCNC(=O)c2cncc(-c3ccc(OC(F)F)cc3)n2)cc(OC)c1 [compound 2]
< 0.5 | > 1 | CCOc1ccc(-c2cncc(C(=O)NCCc3cc(OC)cc(OC)c3)n2)c(F)c1 [compound 3]
< 0.5 | < 0.5 | CCOc1ccc(-c2cncc(C(=O)NCCc3cc(OC)cc(OC)c3)n2)c(C)c1 [compound 4]
< 0.5 | < 0.5 | CCOc1ccc(-c2cncc(C(=O)NCCc3cccc(OC)c3)n2)cc1 [compound 5]
< 0.5 | 0.5 to 1 | CCOc1ccc(-c2cncc(C(=O)NCCc3cc(OC)cc(OC)c3)n2)cc1 [compound 10]
< 0.5 | > 1 | CCOc1ccc(-c2cncc(C(=O)NCCc3cc(OC)cc(C(C)O)c3)n2)cc1 (stereo not drawn) [compound 12]
< 0.5 | > 1 | CCOc1ccc(-c2cncc(C(=O)NCCc3cccc(C(C)O)c3)n2)cc1 (stereo not drawn) [compound 13]
> 1 | > 1 | CCOc1ccc(-c2cncc(C(=O)NCCc3cc(C(C)O)cnc3F)n2)cc1 (stereo not drawn) [compound 14]
< 0.5 | > 1 | CCOc1ccc(-c2cncc(C(=O)NCCc3cc(C(C)O)ccc3F)n2)cc1 (stereo not drawn) [compound 15]
< 0.5 | > 1 | CCOc1ccc(-c2cncc(C(=O)NCCc3cc(OC)cnc3F)n2)cc1 [compound 16]
< 0.5 | 0.5 to 1 | CCOc1ccc(-c2cncc(C(=O)NCCc3cc(OC)ccc3F)n2)cc1 [compound 17]
< 0.5 | > 1 | CCOc1ccc(-c2cncc(C(=O)NCCc3cc(OC)cnc3C)n2)cc1 [compound 18]
< 0.5 | > 1 | CCOc1ccc(-c2cncc(C(=O)NC[C@H](C)c3cc(OC)cc(OC)c3)n2)cc1 [compound 22]
> 1 | > 1 | CCOc1ccc(-c2cncc(C(=O)NC[C@H](O)c3cc(OC)cc(OC)c3)n2)cc1 [compound 24]
> 1 | > 1 | CCOc1ccc(-c2cncc(C(=O)NC[C@@H](O)c3cc(OC)cc(OC)c3)n2)cc1 [compound 25]
> 1 | > 1 | CCOc1ccc(-c2cncc(C(=O)NC[C@H](N)c3cc(OC)cc(OC)c3)n2)cc1 [compound 26]

IC50 [1] [µM] | IC50 [2] [µM] | Compound
< 0.5 | < 0.5 | CCOc1ccc(-c2cncc(C(=O)NC[C@@H](N)c3cc(OC)cc(OC)c3)n2)cc1 [compound 27]
< 0.5 | 0.5 to 1 | COc1cc(CCNC(=O)c2cncc(-c3ccc(OC(C)C)nc3)n2)cc(OC)c1 [compound 28]
< 0.5 | 0.5 to 1 | COc1cc(CCNC(=O)c2cncc(-c3ccc(OC(F)F)nc3)n2)cc(OC)c1 [compound 29]
> 1 | > 1 | CCOc1ccc(-c2cncc(C(=O)NCCc3cc(OC)cc(OC)c3)n2)c(C)n1 [compound 31]
> 1 | > 1 | CCOc1ccc(-c2cncc(C(=O)NCCc3cc(OC)cc(C(C)O)c3)n2)cn1 (stereo not drawn) [compound 40]
> 1 | > 1 | CCOc1ccc(-c2cncc(C(=O)NCCc3cccc(C(C)O)c3)n2)cn1 (stereo not drawn) [compound 41]
> 1 | > 1 | CCOc1ccc(-c2cncc(C(=O)NCCc3cc(OC)cc(OC)c3)n2)cn1 [compound 44]
> 1 | > 1 | COc1ccc(-c2cncc(C(=O)NCCc3cc(OC)cc(OC)c3)n2)cc1 [compound 49]
> 1 | > 1 | COc1cnc(F)c(CCNC(=O)c2cncc(-c3ccc(OC(F)F)cc3)n2)c1 [compound 50]
< 0.5 | > 1 | COc1ccc(-c2cncc(C(=O)NCCc3cc(OC)cnc3F)n2)cc1 [compound 52]
< 0.5 | > 1 | COc1cc(OC)cc([C@H](O)CNC(=O)c2cncc(-c3ccc(OC(F)F)cc3)n2)c1 [compound 54]
< 0.5 | > 1 | COc1ccc(-c2cncc(C(=O)NC[C@@H](O)c3cc(OC)cc(OC)c3)n2)cc1 [compound 55]
> 1 | > 1 | COc1cnc(F)c(CCNC(=O)c2cncc(-c3ccc(C(C)(C)O)cc3)n2)c1 [compound 56]
> 1 | > 1 | COc1cnc(F)c(CCNC(=O)c2cncc(-c3ccc(C(C)O)cc3)n2)c1 (stereo not drawn) [compound 59]
< 0.5 | 0.5 to 1 | CCOc1ccc(-c2cncc(C(=O)Nc3cc4c(OC)cccc4[nH]3)n2)cc1 [compound 60]
0.5 to 1 |  | [2H]C([2H])([2H])Oc1ccc(-c2cncc(C(=O)NC[C@@H](O)c3cc(OC([2H])([2H])[2H])cc(OC([2H])([2H])[2H])c3)n2)cc1 [compound 99]

— patent EP4660185A1, “NAV1.7- AND/OR NAV1.8-INHIBITING AMIDES, PROCESSES FOR THE PREPARATION THEREOF, COMPOSITIONS, USES, METHODS FOR TREATMENT USING SAME, AND KITS” (Eurofarma Laboratórios S.A., priority 2023, dated 2024)
